In PubChem BioAssay AID248 (DTP/NCI, 2004):
Several values for one entry are separate records, joined by “and”; a condition that tells them apart may be missing. Identical values can stand only once. Inconclusive results and toxic doses are left out. Rule as the data show it: active = T/C of 150% or more; inactive = T/C below 125%.

Test system: L1210 leukemia ip in BDF1 mice, survival T/C
Assay: NCI In Vivo Anticancer Drug Screen. Data for tumor model L1210 Leukemia (intraperitoneal) in B6D2F1 (BDF1) mice
Conditions: endpoint: mean survival time, higher = longer survival
How it was run: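 Read-out is survival time, reported as the treated-group measurement over the vehicle-control measurement.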

[1] = dose: 50.0 mg/kg/injection, schedule: Q01DX009 (ip), vehicle: saline with Tween-80
[2] = dose: 100.0 mg/kg/injection, schedule: Q01DX009 (ip), vehicle: saline with Tween-80
[3] = dose: 100.0 mg/kg/injection, schedule: Q04DX003 (ip), vehicle: saline with Tween-80
[4] = dose: 200.0 mg/kg/injection, schedule: Q04DX003 (ip), vehicle: saline with Tween-80
[5] = dose: 400.0 mg/kg/injection, schedule: Q04DX003 (ip), vehicle: saline with Tween-80
[6] = dose: 100.0 mg/kg/injection, schedule: Q01DX009 (ip), vehicle: Klucel (hydroxypropylcellulose) (HPC)
[7] = dose: 200.0 mg/kg/injection, schedule: Q01DX009 (ip), vehicle: Klucel (hydroxypropylcellulose) (HPC)
[8] = dose: 50.0 mg/kg/injection, schedule: Q01DX001 (ip), vehicle: carboxymethylcellulose (CMC)
[9] = dose: 100.0 mg/kg/injection, schedule: Q01DX001 (ip), vehicle: carboxymethylcellulose (CMC)
[10] = dose: 200.0 mg/kg/injection, schedule: Q01DX001 (ip), vehicle: carboxymethylcellulose (CMC)
[11] = dose: 100.0 mg/kg/injection, schedule: Q04DX002 (ip), vehicle: saline
[12] = dose: 200.0 mg/kg/injection, schedule: Q04DX002 (ip), vehicle: saline
[13] = dose: 400.0 mg/kg/injection, schedule: Q04DX002 (ip), vehicle: saline
[14] = dose: 100.0 mg/kg/injection, schedule: Q04DX002 (ip), vehicle: saline with Tween-80
[15] = dose: 200.0 mg/kg/injection, schedule: Q04DX002 (ip), vehicle: saline with Tween-80
[16] = dose: 400.0 mg/kg/injection, schedule: Q04DX002 (ip), vehicle: saline with Tween-80
[17] = dose: 100.0 mg/kg/injection, schedule: Q01DX001 (ip), vehicle: saline
[18] = dose: 200.0 mg/kg/injection, schedule: Q01DX001 (ip), vehicle: saline
[19] = dose: 400.0 mg/kg/injection, schedule: Q01DX001 (ip), vehicle: saline
[20] = dose: 200.0 mg/kg/injection, schedule: Q01DX009 (ip), vehicle: saline with Tween-80
[21] = dose: 100.0 mg/kg/injection, schedule: Q01DX001 (ip), vehicle: Klucel (hydroxypropylcellulose) (HPC)

Measured: T/C

O=C(c1ccccc1)c1c2ccccc2cc2ccccc12
inactive: [1] 91 % of control | [2] 90 % of control | [3] 89 % of control | [4] 89 % of control | [5] 90 % of control

CSc1ncc(C(N)=O)c(N=C(C)C)n1
inactive: dose: 12.5 mg/kg/injection, schedule: Q04DX003 (ip), vehicle: Klucel (hydroxypropylcellulose) (HPC) 96 % of control | dose: 25.0 mg/kg/injection, schedule: Q04DX003 (ip), vehicle: Klucel (hydroxypropylcellulose) (HPC) 96 % of control | dose: 50.0 mg/kg/injection, schedule: Q04DX003 (ip), vehicle: Klucel (hydroxypropylcellulose) (HPC) 94 % of control | dose: 100.0 mg/kg/injection, schedule: Q04DX003 (ip), vehicle: Klucel (hydroxypropylcellulose) (HPC) 97 % of control

CCN(CC)CC(=O)CC12CC3CC(CC(C3)C1)C2
inactive: dose: 0.8 mg/kg/injection, schedule: Q04DX002 (ip), vehicle: saline 93 % of control | dose: 1.6 mg/kg/injection, schedule: Q04DX002 (ip), vehicle: saline 97 % of control | dose: 3.1 mg/kg/injection, schedule: Q04DX002 (ip), vehicle: saline 101 % of control | dose: 6.25 mg/kg/injection, schedule: Q04DX002 (ip), vehicle: saline 97 % of control

Nc1cc(S(=O)(=O)O)cc2cc(S(=O)(=O)O)cc(S(=O)(=O)O)c12
inactive: dose: 100.0 mg/kg/injection, schedule: Q01DX009 (ip), vehicle: saline 107 % of control | dose: 200.0 mg/kg/injection, schedule: Q01DX009 (ip), vehicle: saline 104 % of control | dose: 400.0 mg/kg/injection, schedule: Q01DX009 (ip), vehicle: saline 100 % of control

CC1CCC(C(C)C)C(N(C)Cc2cc(Br)cc(Br)c2O)C1 (stereo not given)
inactive: dose: 50.0 mg/kg/injection, schedule: Q01DX009 (ip), vehicle: Klucel (hydroxypropylcellulose) (HPC) 102 % of control | [6] 107 % of control | [3] 104 % of control | [7] 105 % of control | [4] 104 % of control | [5] 98 % of control

CN1c2ccccc2Sc2ccccc21
inactive: [8] 94 % of control | [9] 96 % of control | [10] 107 % of control

CN(C=O)c1ccccc1
inactive: [11] 106 % of control | [12] 102 % of control | [13] 95 % of control

O=C1NC(=S)S/C1=C/C=C/c1ccccc1
inactive: [14] 95 % of control | [15] 87 % of control | [16] 98 % of control

CCCCCCCCCCCCCCCCCCCCCCCC(=O)NCCc1c[nH]c2ccc(O)cc12 (tested in a mixture with another compound)
inactive: [3] 96 % of control | [4] 96 % of control | [5] 86 % of control

COc1ccc(COC(=O)Oc2ccc(C)cc2)cc1
inactive: [11] 113 % of control | [12] 109 % of control | [13] 98 % of control

CCCCc1ccc(C2=CC(=O)C(c3ccc(CCCC)cc3)=CC2=O)cc1
inactive: [17] 98 % of control | [18] 95 % of control | [19] 97 % of control

Nc1ccc(Cl)c(Cl)c1
inactive: [8] 98 % of control | dose: 50.0 mg/kg/injection, schedule: Q01DX009 (ip), vehicle: alcohol 101 % of control | [1] 92 % of control | dose: 50.0 mg/kg/injection, schedule: Q04DX003 (ip), vehicle: saline with Tween-80 104 % of control | [9] 93 % of control | dose: 100.0 mg/kg/injection, schedule: Q01DX009 (ip), vehicle: alcohol 109 % of control | [2] 94 % of control | dose: 100.0 mg/kg/injection, schedule: Q04DX003 (ip), vehicle: alcohol 114 % of control | [3] 104 % of control | [10] 95 % of control | dose: 200.0 mg/kg/injection, schedule: Q01DX009 (ip), vehicle: alcohol 90 % of control | [20] 95 % of control | dose: 200.0 mg/kg/injection, schedule: Q04DX003 (ip), vehicle: alcohol 97 % of control | [4] 104 % of control

CCCNC(=O)Oc1cccc2cccnc12
inactive: [6] 93 % of control and 95 % of control | dose: 100.0 mg/kg/injection, schedule: Q04DX002 (ip), vehicle: Klucel (hydroxypropylcellulose) (HPC) 97 % of control and 105 % of control | [7] 101 % of control and 112 % of control | dose: 200.0 mg/kg/injection, schedule: Q04DX002 (ip), vehicle: Klucel (hydroxypropylcellulose) (HPC) 102 % of control and 103 % of control | dose: 400.0 mg/kg/injection, schedule: Q01DX009 (ip), vehicle: Klucel (hydroxypropylcellulose) (HPC) 95 % of control

C=C(C)[C@@H]1CC[C@@H](C)C[C@H]1O
inactive: [17] 103 % of control | [18] 100 % of control | [19] 105 % of control

NC(N)=Nc1cccc(OCCCOc2ccccc2)c1
inactive: dose: 150.0 mg/kg/injection, schedule: Q01DX001 (ip), vehicle: saline with Tween-80 88 % of control | dose: 300.0 mg/kg/injection, schedule: Q01DX001 (ip), vehicle: saline with Tween-80 94 % of control

COC1CCC(N)CC1 (stereo not given)
inactive: [17] 109 % of control | [18] 107 % of control | [19] 97 % of control

CSc1cc(N)nc(N)c1[N+](=O)[O-]
inactive: [21] 99 % of control | dose: 200.0 mg/kg/injection, schedule: Q01DX001 (ip), vehicle: Klucel (hydroxypropylcellulose) (HPC) 96 % of control | dose: 400.0 mg/kg/injection, schedule: Q01DX001 (ip), vehicle: Klucel (hydroxypropylcellulose) (HPC) 94 % of control

C=C1C(=O)OC2C1CCC(C)C1(CCC(=O)O1)C2(C)O (stereo not given)
inactive: [3] 96 % of control | [4] 96 % of control | [5] 96 % of control

CC(C)(C)c1cc(C(C)(C)[N+](C)(C)C)cc(C(C)(C)C)n1
inactive: dose: 50.0 mg/kg/injection, schedule: Q01DX001 (ip), vehicle: Klucel (hydroxypropylcellulose) (HPC) 102 % of control | [21] 90 % of control

O=C(Nc1cccc(Cl)c1)C1CCCC1=Nc1cccc(Cl)c1 (stereo not given)
inactive: dose: 50.0 mg/kg/injection, schedule: Q01DX001 (ip), vehicle: saline 103 % of control | [17] 100 % of control | [18] 103 % of control | [19] 94 % of control

CCOC(=O)Cn1c(C(F)(F)F)nc2nc(Cl)c(Cl)nc21
inactive: [1] 97 % of control | [2] 108 % of control | [20] 97 % of control

COc1cc([N+](=O)[O-])ccc1NC(=O)N(C)C1CCCCC1
inactive: dose: 100.0 mg/kg/injection, schedule: Q01DX001 (ip), vehicle: saline with Tween-80 103 % of control | [2] 98 % of control and 91 % of control | [14] 99 % of control and 105 % of control | dose: 200.0 mg/kg/injection, schedule: Q01DX001 (ip), vehicle: saline with Tween-80 100 % of control | [20] 92 % of control and 96 % of control | [15] 94 % of control and 86 % of control | dose: 400.0 mg/kg/injection, schedule: Q01DX001 (ip), vehicle: saline with Tween-80 94 % of control | dose: 400.0 mg/kg/injection, schedule: Q01DX009 (ip), vehicle: saline with Tween-80 94 % of control and 98 % of control | [16] 94 % of control and 89 % of control

Cc1c(N=Cc2ccccc2)c(=O)n(-c2ccccc2)n1C
inactive: dose: 100.0 mg/kg/injection, schedule: Q01DX009 (ip), vehicle: gum acacia 104 % of control | dose: 100.0 mg/kg/injection, schedule: Q04DX003 (ip), vehicle: gum acacia 100 % of control | dose: 200.0 mg/kg/injection, schedule: Q04DX003 (ip), vehicle: gum acacia 95 % of control | dose: 400.0 mg/kg/injection, schedule: Q01DX009 (ip), vehicle: gum acacia 88 % of control | dose: 400.0 mg/kg/injection, schedule: Q04DX003 (ip), vehicle: gum acacia 95 % of control

CC(=O)OC1CCC(NC(=O)NCCCl)CC1 (stereo not given)
inactive: dose: 100.0 mg/kg/injection, schedule: Q01DX001 (ip), vehicle: other 96 % of control | dose: 200.0 mg/kg/injection, schedule: Q01DX001 (ip), vehicle: other 98 % of control | dose: 400.0 mg/kg/injection, schedule: Q01DX001 (ip), vehicle: other 88 % of control

C1CCC(CCCCC2CCC(CCCCC3CCCCC3)CC2)CC1 (stereo not given)
inactive: [3] 91 % of control | [4] 93 % of control | [5] 96 % of control

CCOCC(=O)CC(C)(C)C
inactive: [1] 92 % of control | [2] 92 % of control | [20] 103 % of control
